Reference: US7361769B2, “Heterocyclyls as selective melanin concentrating hormone receptor antagonists for the treatment of obesity and related disorders” (Schering Corporation, priority 2004, dated 2008)
Where two headings read alike, the source gives them in different places.

Assays:
[1] = target: T1, hERG channels (Homo sapiens, UniProt Q12809); test: Herg-Rb two phase screen (rubidium efflux); format: cell-based; conditions: CHO cells expressing hERG, relative to complete block with 10 μM dofetilide; for herg-Rb 1.5 μg/mL (%): test article at 1.5 μg/ml; for herg-Rb 5 μg/mL (%): test article at 5 μg/ml
T1 construct: expressed in transfected cells
Description: Herg-Rb data (μg/mL) (%) was determined by the following two phase screen. The first phase is a cell-handling phase in which cells are loaded with rubidium, drugs are added and efflux initiated by KCl-depolarization. The second phase is measurement of rubidium content in cell supernatants that are collected at the end of the cell-handling phase. CHO cells expressing hERG in a stable manner are used for these studies. Cells are plated into 96-well dishes one day prior to study. After overnight culture, the normal tissue culture medium is removed and cells are loaded with rubidium for 3 hours in a HEPES-buffered physiological saline solution containing 5 mM rubidium chloride in place of potassium chloride. During the final 30 minutes of rubidium loading cells are pre-equilibrated with test articles at 1.5 μg/ml and 5 μg/ml. Cells are then washed with rubidium-free HEPES buffered physiological saline solution containing 5 mM KCl to remove all extracellular rubidium. The final step of the cell handling phase is to depolarize the cells in HEPES buffered physiological saline containing 50 mM KCl. This opens hERG channels and permits efflux of rubidium. Supernatants are collected after 5 minutes and rubidium content is measured using a flame atomic absorbance spectrometer with a robot for sampling from 96-well plates (ICR-8000, Aurora Biomed Inc., Vancouver, British Columbia). In cases where the channel is blocked the amount of rubidium efflux is reduced. Drug effects are calculated based on the difference between wells with no added compound and wells in which there is complete block of hERG channels with a well-known positive standard (10 μM dofetilide).

[2] = target: T2, MCH receptor (Homo sapiens, UniProt Q99705); test: MCH receptor binding assay ([125I]-MCH, SPA); conditions: membranes from CHO cells expressing the MCH receptor
T2 construct: expressed in transfected cells; host or cells: CHO cells (membrane preparation)
Description: MCH Receptor Binding Assay:
Membranes from CHO cells expressing the MCH receptor were prepared by lysing cells with 5 mM HEPES for 15 min at 4 C. Cell lysates were centrifuged ([…], 15 min) and the pellet was re-suspended in 5 mM HEPES. For each 96-well plate (Microlite, Dynex Technologies), 1 mg of cell membranes were incubated with 10 mg of wheat germ agglutinin SPA beads (Amersham) for 5 min at 4 C in a volume of 10 ml of binding buffer (25 mM HEPES, 10 mM MGCl2, 10 mM NaCl, 5 mM MnCl2, 0.1% BSA). The membrane/bead mixture was centrifuged (1500×g, 3.5 min), the supernatant was aspirated, and the pellet was resuspended in 10 ml binding buffer. The centrifugation, aspiration and resuspension were then repeated. The membrane/bead mixture (100 μl) was then added to 96-well plates containing 50 μl of 500 pM [^125I]-MCH (NEN) and […] of the appropriate concentration of compound (4× the desired final concentration). Nonspecific binding was determined by including 1 μM MCH in the binding reaction. The binding reaction was incubated at room temperature for 2 h. Plates were then analyzed in a TOPCOUNT microplate scintillation counter (Packard). Data was analyzed and Ki values were determined using GraphPad Prism.

T1 sequence (Q12809 whole entry): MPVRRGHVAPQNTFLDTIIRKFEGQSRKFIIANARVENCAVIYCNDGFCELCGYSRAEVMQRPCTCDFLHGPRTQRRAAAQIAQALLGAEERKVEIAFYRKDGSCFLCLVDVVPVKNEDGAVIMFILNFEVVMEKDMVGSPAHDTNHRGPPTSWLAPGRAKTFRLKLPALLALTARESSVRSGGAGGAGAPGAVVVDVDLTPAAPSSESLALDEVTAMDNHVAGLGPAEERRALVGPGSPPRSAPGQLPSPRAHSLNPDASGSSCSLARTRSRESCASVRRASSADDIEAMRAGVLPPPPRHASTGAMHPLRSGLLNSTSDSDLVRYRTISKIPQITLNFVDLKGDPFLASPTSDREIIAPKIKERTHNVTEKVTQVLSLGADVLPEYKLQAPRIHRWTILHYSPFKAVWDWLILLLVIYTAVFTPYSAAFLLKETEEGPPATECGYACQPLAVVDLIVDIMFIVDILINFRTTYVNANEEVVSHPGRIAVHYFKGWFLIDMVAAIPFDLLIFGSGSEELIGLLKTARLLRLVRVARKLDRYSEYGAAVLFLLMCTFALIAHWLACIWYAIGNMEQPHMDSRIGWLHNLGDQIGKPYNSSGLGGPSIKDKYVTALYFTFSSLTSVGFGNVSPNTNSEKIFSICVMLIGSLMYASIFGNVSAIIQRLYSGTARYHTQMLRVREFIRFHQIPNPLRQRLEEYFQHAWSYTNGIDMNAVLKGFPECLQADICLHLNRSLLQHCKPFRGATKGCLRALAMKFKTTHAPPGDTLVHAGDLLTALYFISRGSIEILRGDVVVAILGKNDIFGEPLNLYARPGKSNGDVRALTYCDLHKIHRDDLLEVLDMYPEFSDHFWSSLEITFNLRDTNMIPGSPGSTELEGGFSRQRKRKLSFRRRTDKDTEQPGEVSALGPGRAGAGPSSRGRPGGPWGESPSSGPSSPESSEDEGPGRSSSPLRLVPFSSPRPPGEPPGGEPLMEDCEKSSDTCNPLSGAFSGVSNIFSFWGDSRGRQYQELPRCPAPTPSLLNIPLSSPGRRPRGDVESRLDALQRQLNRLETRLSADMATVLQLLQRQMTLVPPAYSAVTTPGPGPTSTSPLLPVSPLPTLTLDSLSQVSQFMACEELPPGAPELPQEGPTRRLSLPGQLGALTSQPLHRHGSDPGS
T2 sequence (Q99705 whole entry): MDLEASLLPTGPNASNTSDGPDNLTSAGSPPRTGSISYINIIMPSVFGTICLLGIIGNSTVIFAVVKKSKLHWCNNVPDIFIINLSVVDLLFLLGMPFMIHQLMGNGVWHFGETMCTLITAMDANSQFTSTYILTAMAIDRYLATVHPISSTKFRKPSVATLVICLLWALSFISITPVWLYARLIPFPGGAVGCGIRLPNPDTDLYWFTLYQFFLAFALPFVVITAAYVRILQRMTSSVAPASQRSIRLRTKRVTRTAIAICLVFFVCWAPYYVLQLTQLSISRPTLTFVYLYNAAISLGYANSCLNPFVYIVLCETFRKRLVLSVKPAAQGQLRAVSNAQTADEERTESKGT

Row | SMILES | Ki ([2]; read-out: Class (Ki)) [nM] | Ki ([2]; read-out: Ki) [nM] | herg-Rb 1.5 μg/mL (%) [1] [%] | herg-Rb 5 μg/mL (%) [1] [%]
1 | NCc1ccc(C2=CCC(N(CCN3CCCC3)C(=O)Nc3ccc(F)c(Cl)c3)CC2)s1 (centres unmarked) [Example 1] | < 30 | 8 | 22 | 26
2 | CN(C)Cc1ccc(C2=CCC(N(CCN3CCCC3)C(=O)Nc3ccc(F)c(Cl)c3)CC2)s1 (centres unmarked) [Example 2] | > 100 |  |  | 
3 | O=C(Nc1ccc(F)c(Cl)c1)N(CCN1CCCC1)C1CC=C(c2ccc(CN3CCC3)s2)CC1 (centres unmarked) [Example 3] | > 100 |  | −1 | 15
4 | O=C(Nc1ccc(F)c(Cl)c1)N(CCN1CCCC1)C1CC=C(c2ccc(CN3CCCC3)s2)CC1 (centres unmarked) [Example 4] | > 100 |  | −1 | 20
5 | O=C(Nc1ccc(F)c(Cl)c1)N(CCN1CCCC1)C1CC=C(c2ccc(CN3CC[C@H](O)C3)s2)CC1 (some centres unmarked) [Example 5] | 30 to 100 |  | 0 | 6
6 | CNCc1ccc(C2=CCC(N(CCN3CCCC3)C(=O)Nc3ccc(F)c(Cl)c3)CC2)s1 (centres unmarked) [Example 6] | < 30 |  |  | 
7 | NCc1ncc(C2=CCC(N(CCN3CCCC3)C(=O)Nc3ccc(F)c(Cl)c3)CC2)s1 (centres unmarked) [Example 7] | < 30 |  | −1 | 10
8 | CN(C)Cc1ncc(C2=CCC(N(CCN3CCCC3)C(=O)Nc3ccc(F)c(C(F)(F)F)c3)CC2)s1 (centres unmarked) [Example 8] | > 100 |  |  | 
9 | CN(C)Cc1ncc(C2=CCC(N(CCN3CCCC3)C(=O)Nc3ccc(F)c(Cl)c3)CC2)s1 (centres unmarked) [Example 9] | > 100 |  |  | 
10 | NCc1ncc(C2=CCC(N(CCN3CCCC3)C(=O)Nc3ccc(F)c(C(F)(F)F)c3)CC2)s1 (centres unmarked) [Example 10] | < 30 |  | 9 | 26

More lines, main results first:

Row | Ki ([2]; read-out: Class (Ki)) [nM] | Ki ([2]; read-out: Ki) [nM] | SMILES | herg-Rb 1.5 μg/mL (%) [1] [%] | herg-Rb 5 μg/mL (%) [1] [%]
11 | < 30 |  | NCc1cnc(C2=CCC(N(CCN3CCCC3)C(=O)Nc3ccc(F)c(Cl)c3)CC2)s1 (centres unmarked) [Example 11] | 9 | 14
12 | > 100 |  | NCc1ncc([C@]23CC[C@@H](N(CCN4CCCC4)C(=O)Nc4ccc(F)c(C(F)(F)F)c4)[C@H]2C3)s1 [Example 12] | 13 | 16
13 | 30 to 100 |  | NCc1ncc([C@]23CC[C@@H](N(CCN4CC[C@H](O)C4)C(=O)Nc4ccc(F)c(C(F)(F)F)c4)[C@H]2C3)s1 [Example 13] | 13 | 8
14 | > 100 |  | NCc1ncc([C@@]23C[C@H](N(CCCN4CC[C@H](O)C4)C(=O)Nc4ccc(F)c(C(F)(F)F)c4)C[C@@H]2C3)s1 [Example 14] |  | 
15 | 30 to 100 |  | NCc1ncc([C@]23CC[C@@H](N(CCCN4CC[C@H](O)C4)C(=O)Nc4ccc(F)c(C(F)(F)F)c4)C2C3)s1 (some centres unmarked) [Example 15] | −4 | −4
16 | < 30 |  | C[C@@H]1CN(CCCN(C(=O)Nc2ccc(F)c(C(F)(F)F)c2)[C@@H]2CC[C@]3(c4cnc(CN)s4)CC23)[C@@H](C)CN1 (some centres unmarked) [Example 16] | −11 | −8
17 | 30 to 100 |  | NCc1ncc([C@]23CC[C@@H](N(CCCN4CC5CC4CN5)C(=O)Nc4ccc(F)c(C(F)(F)F)c4)C2C3)s1 (some centres unmarked) [Example 17] | 0 | 14
18 | < 30 |  | NCc1ncc([C@]23CC[C@@H](N(CCCN4CC[C@@H](O)C4)C(=O)Nc4ccc(F)c(C(F)(F)F)c4)C2C3)s1 (some centres unmarked) [Example 18] | −5 | −4
19 | < 30 |  | C[C@@H]1CN(CCCN(C(=O)Nc2cc(Cl)nc(Cl)c2)[C@@H]2CC[C@]3(c4cnc(CN)s4)CC23)[C@@H](C)CN1 (some centres unmarked) [Example 19] | −10 | 3
20 | > 100 |  | NCc1ncc([C@@]23CC[C@H](N(CCCN4CC[C@@H](O)C4)C(=O)Nc4ccc(F)c(C(F)(F)F)c4)[C@@H]2C3)s1 [Example 20] |  | 
21 | < 30 |  | NCc1ncc([C@]23CC[C@@H](N(CCCN4CC[C@@H](O)C4)C(=O)Nc4ccc(F)c(C(F)(F)F)c4)[C@H]2C3)s1 [Example 21] |  | 
